# Results as given in US5156956A, “Transgultaminase” (Ajinomoto Co., Inc., priority 1987, dated 1992).
# Residues, ends and D or L forms follow the SMILES beside them. *: point of attachment. Cbz = O=C(OCc1ccccc1)*
# Target: T1, BTG-1 (Streptomyces mobaraensis, UniProt P81453)
# T1 construct: BTGase is dissolved in the culture solution and can be harvested from the culture filtrate; endogenous in cells; host or cells: Streptoverticillium mobaraense IFO 13819 (natural producer; purified from culture filtrate)
# T1 sequence (P81453 77-407): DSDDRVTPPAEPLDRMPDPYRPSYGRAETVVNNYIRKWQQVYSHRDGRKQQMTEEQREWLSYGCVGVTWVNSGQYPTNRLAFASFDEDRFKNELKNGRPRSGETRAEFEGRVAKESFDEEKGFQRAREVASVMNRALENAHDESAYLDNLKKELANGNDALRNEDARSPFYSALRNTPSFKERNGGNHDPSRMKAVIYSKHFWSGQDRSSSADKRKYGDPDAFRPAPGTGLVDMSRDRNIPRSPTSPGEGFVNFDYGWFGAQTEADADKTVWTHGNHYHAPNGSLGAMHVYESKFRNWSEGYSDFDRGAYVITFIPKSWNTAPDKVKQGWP
# Assay: biochemical
# Set-up: species or system Streptoverticillium mobaraense IFO 13819
# Details: inhibitor 1 mM, 25° C. for 30 minutes; None = 100
# Experimental: (§1) Measurement of the activity of BTGase is carried out by performing a reaction using benzyloxycarbonyl-L-glutaminyl glycine and hydroxylamine as substrates in the absence of Ca^2+, forming an iron complex with the resulting hydroxamic acid in the presence of trichloroacetic acid, measuring absorption at 525 nm and determining the amount of hydroxamic acid by a calibration curve to calculate the activity. The BTGase activity is measured by the method described below, unless otherwise indicated.
# (§2) To 0.05 ml of an enzyme solution is added 0.5 ml of Reagent A and they are mixed with each other. After reacting at 37° C. for 30 minutes, Reagent B is added thereto to discontinue the reaction and form an Fe complex. Thereafter, absorbance is measured at 525 nm. […] Separately, a calibration curve is prepared using L-glutamic acid γ-monohydroxamio acid instead of the enzyme solution, and the amount of hydroxamic acid produced is determined by the difference in absorbance described above. An enzyme activity which produces 1 μmol of hydroxamic acid per 1 minute is defined as 1 unit.
row,Compound,BTG-1 (%) activity with inhibitor
1,"O=S(=O)(F)Cc1ccccc1 [PMSF, phenylmethylsulfonyl fluoride]",104%

# Same assay, conditions: read-out: BTG-1 (%) activity with inhibitor
row,Compound,inhibition at 1000 µM
1,O=C(O)CN(CCN(CC(=O)O)CC(=O)O)CC(=O)O [EDTA],102%

# Target: T2, BTG-2 (Streptomyces griseocarneus, UniProt A0ABX7RSJ1)
# T2 construct: Ca2+-independent; made as pre-pro-protein
# Assay: biochemical
# Set-up: species or system Streptoverticillium griseocarneum IFO 12776
# Details: inhibitor 1 mM, 25° C. for 30 minutes; None = 100
# Experimental: as §1, §2
row,Compound,BTG-2 (%) activity with inhibitor
1,"O=S(=O)(F)Cc1ccccc1 [PMSF, phenylmethylsulfonyl fluoride]",95%

# Same assay, conditions: read-out: BTG-2 (%) activity with inhibitor
row,Compound,inhibition at 1000 µM
1,O=C(O)CN(CCN(CC(=O)O)CC(=O)O)CC(=O)O [EDTA],98%

# System: BTGase
# Assay: Substrate specificity, statement on all BTGases
# Format: biochemical, Streptoverticillium
# Details: substrate 5 mM, with hydroxylamine
# Experimental: (§3) Using each BTGase, reactions of various synthetic substrates with hydroxylamine were examined. […] In this case, the concentration of various synthetic substrates is 5 mM. In the table, CBZ, Gln, Gly and Asn are abbreviations for benzyloxycarbonyl group, glutaminyl group, glycyl group and asparaginyl group, respectively.
row,Compound,Reactivity of synthetic substrate with the BTGases (in words)
1,"NC(=O)CC[C@H](NC(=O)OCc1ccccc1)C(=O)O [CBZ--Gln, benzyloxycarbonyl glutamine]",No BTGase reacts
2,"NC(=O)CC[C@H](NC(=O)OCc1ccccc1)C(=O)NCC(=O)O [CBZ--Gln--Gly, benzyloxycarbonylglutaminyl glycine] (Cbz-Gln-Gly-OH)",reactivity is the highest
3,"NC(=O)C[C@H](NC(=O)OCc1ccccc1)C(=O)NCC(=O)O [CBZ--Asn--Gly, benzyloxycarbonylasparaginyl glycine] (Cbz-Asn-Gly-OH)",No BTGase reacts

# Target: T3, MTGase (transglutaminase of guinea pig liver) (UniProt P08587)
# T3 construct: from tissue; host or cells: guinea pig liver
# T3 sequence (P08587 1-690): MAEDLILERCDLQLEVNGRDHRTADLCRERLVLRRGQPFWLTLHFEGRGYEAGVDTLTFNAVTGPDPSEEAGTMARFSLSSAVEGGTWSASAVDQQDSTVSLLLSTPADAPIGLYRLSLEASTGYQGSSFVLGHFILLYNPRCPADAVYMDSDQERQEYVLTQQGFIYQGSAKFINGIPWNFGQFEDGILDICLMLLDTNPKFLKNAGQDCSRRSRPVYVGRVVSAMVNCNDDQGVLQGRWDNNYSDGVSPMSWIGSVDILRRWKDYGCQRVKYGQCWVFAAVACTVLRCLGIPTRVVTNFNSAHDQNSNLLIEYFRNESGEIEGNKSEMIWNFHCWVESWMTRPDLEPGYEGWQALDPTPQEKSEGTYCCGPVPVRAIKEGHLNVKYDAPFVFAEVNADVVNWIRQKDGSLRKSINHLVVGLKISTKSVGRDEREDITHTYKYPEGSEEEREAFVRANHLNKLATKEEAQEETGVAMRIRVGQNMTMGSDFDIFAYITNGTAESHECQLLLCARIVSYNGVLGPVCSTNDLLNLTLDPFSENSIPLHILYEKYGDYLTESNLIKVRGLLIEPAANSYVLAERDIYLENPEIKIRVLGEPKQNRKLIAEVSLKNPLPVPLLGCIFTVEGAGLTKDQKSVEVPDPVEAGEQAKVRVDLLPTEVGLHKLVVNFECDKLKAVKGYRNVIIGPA
# Assay: Substrate specificity: synthetic substrates
# Format: biochemical
# Details: Table 4
# Experimental: Next, properties of BTGases are compared to those of guinea pig liver-derived transglutaminase. The guinea pig liver-derived transglutaminase was prepared by the method described in Published Unexamined Japanese Patent Application No. 149645/83. As will be apparent from Tables 4 and 5, various differences in enzymological properties are noted between transglutaminase of guinea pig liver (hereafter referred to as MTGase) which has been mainly investigated heretofore and BTGases derived from actinomycetes; in particular, differences are noted in temperature stability, molecular weight, isoelectric point and substrate specificity. Further, a difference is noted in that the BTGases of the present invention act in the presence and absence of Ca^2+. Therefore, the respective enzymes of the present invention are different from MTGase in their properties.
row,Compound,Substrate specificity (%) MTGase
1,"NC(=O)CC[C@H](NC(=O)OCc1ccccc1)C(=O)NCC(=O)O [CBZ--Gln--Gly, benzyloxycarbonylglutaminyl glycine] (Cbz-Gln-Gly-OH)",100%

# Target: T1, BTG-1
# Assay: Substrate specificity: synthetic substrates with hydroxylamine
# Format: biochemical, Streptoverticillium mobaraense IFO 13819
# Details: Table 4
# Experimental: as §1, §2, §3
row,Compound,Substrate specificity (%) BTG-1
1,"NC(=O)CC[C@H](NC(=O)OCc1ccccc1)C(=O)NCC(=O)O [CBZ--Gln--Gly, benzyloxycarbonylglutaminyl glycine] (Cbz-Gln-Gly-OH)",100%

# Same assay, conditions: substrate 5 mM, with hydroxylamine
row,Compound,"Reactivity of substrate with BTG-1 (relative, Table 1)"
1,"NC(=O)CC[C@H](NC(=O)OCc1ccccc1)C(=O)O [CBZ--Gln, benzyloxycarbonyl glutamine]",0
2,"NC(=O)CC[C@H](NC(=O)OCc1ccccc1)C(=O)NCC(=O)O [CBZ--Gln--Gly, benzyloxycarbonylglutaminyl glycine] (Cbz-Gln-Gly-OH)",100
3,"NC(=O)C[C@H](NC(=O)OCc1ccccc1)C(=O)NCC(=O)O [CBZ--Asn--Gly, benzyloxycarbonylasparaginyl glycine] (Cbz-Asn-Gly-OH)",0

# Target: T4, BTG-3 (Streptomyces cinnamoneus, UniProt Q8GR90)
# T4 construct: Ca2+-independent; made as pre-pro-protein
# T4 sequence (Q8GR90 86-416): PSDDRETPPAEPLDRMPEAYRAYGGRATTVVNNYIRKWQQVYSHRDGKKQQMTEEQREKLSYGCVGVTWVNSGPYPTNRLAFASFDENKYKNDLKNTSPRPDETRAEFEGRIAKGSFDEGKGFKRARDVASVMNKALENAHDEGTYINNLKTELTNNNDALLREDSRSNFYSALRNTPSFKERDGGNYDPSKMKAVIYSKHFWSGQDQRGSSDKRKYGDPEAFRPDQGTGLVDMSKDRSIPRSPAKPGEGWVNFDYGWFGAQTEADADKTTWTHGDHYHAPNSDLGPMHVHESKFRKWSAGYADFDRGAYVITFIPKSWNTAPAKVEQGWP
# Assay: as above
# Format: biochemical
# Details: Table 4
# Experimental: as §1, §2, §3
row,Compound,Substrate specificity (%) BTG-3
1,"NC(=O)CC[C@H](NC(=O)OCc1ccccc1)C(=O)NCC(=O)O [CBZ--Gln--Gly, benzyloxycarbonylglutaminyl glycine] (Cbz-Gln-Gly-OH)",100%

# Same assay, conditions: substrate 5 mM, with hydroxylamine
row,Compound,"Reactivity of substrate with BTG-3 (relative, Table 1)"
1,"NC(=O)CC[C@H](NC(=O)OCc1ccccc1)C(=O)O [CBZ--Gln, benzyloxycarbonyl glutamine]",0
2,"NC(=O)CC[C@H](NC(=O)OCc1ccccc1)C(=O)NCC(=O)O [CBZ--Gln--Gly, benzyloxycarbonylglutaminyl glycine] (Cbz-Gln-Gly-OH)",100
3,"NC(=O)C[C@H](NC(=O)OCc1ccccc1)C(=O)NCC(=O)O [CBZ--Asn--Gly, benzyloxycarbonylasparaginyl glycine] (Cbz-Asn-Gly-OH)",0

# Target: T2, BTG-2
# Assay: as above
# Format: biochemical, Streptoverticillium griseocarneum IFO 12776
# Details: Table 4
# Experimental: as §1, §2, §3
row,Compound,Substrate specificity (%) BTG-2
1,"NC(=O)CC[C@H](NC(=O)OCc1ccccc1)C(=O)NCC(=O)O [CBZ--Gln--Gly, benzyloxycarbonylglutaminyl glycine] (Cbz-Gln-Gly-OH)",100%

# Same assay, conditions: substrate 5 mM, with hydroxylamine
row,Compound,"Reactivity of substrate with BTG-2 (relative, Table 1)"
1,"NC(=O)CC[C@H](NC(=O)OCc1ccccc1)C(=O)O [CBZ--Gln, benzyloxycarbonyl glutamine]",0
2,"NC(=O)CC[C@H](NC(=O)OCc1ccccc1)C(=O)NCC(=O)O [CBZ--Gln--Gly, benzyloxycarbonylglutaminyl glycine] (Cbz-Gln-Gly-OH)",100
3,"NC(=O)C[C@H](NC(=O)OCc1ccccc1)C(=O)NCC(=O)O [CBZ--Asn--Gly, benzyloxycarbonylasparaginyl glycine] (Cbz-Asn-Gly-OH)",0

# Target: T4, BTG-3
# Assay: biochemical
# Details: inhibitor 1 mM, 25° C. for 30 minutes; None = 100
# Experimental: as §1, §2
row,Compound,BTG-3 (%) activity with inhibitor
1,"O=S(=O)(F)Cc1ccccc1 [PMSF, phenylmethylsulfonyl fluoride]",101%

# Same assay, conditions: read-out: BTG-3 (%) activity with inhibitor
row,Compound,inhibition at 1000 µM
1,O=C(O)CN(CCN(CC(=O)O)CC(=O)O)CC(=O)O [EDTA],99%
